Assay results reported in patent US20250339531A1, “DUX4 POLYPEPTIDES AND NUCLEIC ACIDS FOR TREATING INFLAMMATORY AND AUTOIMMUNE CONDITIONS” (Fred Hutchinson Cancer Center, priority 2021, published 2025).

System: proteins that co-immunoprecipitated with DUX4-CTD constructs expressed in MB135 myoblasts
Experiment: LC-MS of proteins co-immunoprecipitated with DUX4-CTD (Table 1) and western validation
Assay type: binding, human
Set-up: key to 4. mL1dL2 + Dox + IFNG / 4. + IFNG mix / 4. longCTD + Dox + IFNG / 3. + IFNg + Dox longCTD / 3. + Dox longCTD / 3. + IFNG longCTD: peptide-spectrum matches (PSMs) per protein
Settings: for 4. longCTD + Dox + IFNG: LC-MS counts of the listed protein co-immunoprecipitated with DUX4-CTD bait longCTD; for 3. + Dox longCTD / 3. + IFNg + Dox longCTD / 3. + IFNG longCTD: bait longCTD; for 3. + Dox longCTD: experiment 3, Dox only; for 3. + IFNg + Dox longCTD: experiment 3, IFNg + Dox; for SUM of PSMS: sum over all samples; for 3. + IFNG longCTD: experiment 3, IFNG only, no doxycycline (bait at background level)
Description: As an unbiased method to identify proteins that interact with the C-terminal region of DUX4, liquid chromatography mass spectroscopy (LC-MS) was used to identify proteins that co-immunoprecipitated with DUX4-CTD constructs expressed in MB135 myoblasts. In the first experiment, MB135iDUX4-CTD cells were used, either untreated, treated with doxycycline alone, or with both doxycycline and IFNG. In the second experiment, MB135iDUX4-CTD and MB135iDUX4mL1dL2 cells were used, both treated with doxycycline and IFNG, compared to these two cell lines untreated and combined as a control. Proteins with a minimum of 2 peptide spectrum matches (PSMs) in at least one sample that were identified in both experiments were assigned to one of ten categories (see Methods) to separate candidate interactors from other categories that might be co-purified because of obligate interactions (e.g., proteasome or ribosome) or might be less likely to be physiologically relevant (e.g., cytoskeletal proteins). Candidate interactors were then ranked based on the total PSMs for that protein across all samples.
Centrifugation at 2500 rcf at 4° C. for 5 min pelleted the nuclei, supernatant was discarded, and nuclei resuspended in 1 mL IP buffer pH 7.4 (25 mM Tris-HCl pH 7.5, 175 mM NaCl, 1 mM EDTA, 0.2% NP-40, 5% glycerol) and incubated for 1 hour at 4° C. with rotation then spun at 21000 rcf for 10 minutes at 4° C. to pellet insoluble debris. Protein concentration was determined using the Pierce BCA Protein Assay Kit (ThermoFisher, 23225). An equivalent amount of protein per sample was pre-cleared with Dynabeads Protein G (Invitrogen) bound to mouse IgG (Abcam #131368) for 1 hour at 4° C. with rotation. FLAG-tagged constructs were then immunoprecipitated with Dynabeads Protein G beads coupled to mouse anti-FLAG M2 mAb (Sigma F3165) for 3 hours at 4° C. with rotation. Beads were washed 3× with 1 mL IP buffer and eluted by adding 2× NuPage LDS Sample Buffer (Thermo Fisher, diluted from 4× with PBS) to the beads and heating for 10 minutes at 70° C.
For LC-MS, anti-FLAG immunoprecipitation was performed with beads cross-linked to the anti-FLAG antibody and the proteins competitively eluted with FLAG peptide. Eluted protein samples were electrophoresed into a NuPage 4-12% Bis-Tris gel, excised, and processed by the Fred Hutchinson Cancer Research Center Proteomics Core. Samples were reduced, alkylated, digested with trypsin, desalted, and run on the Orbitrap Eclipse Tribid Mass Spectrometer (Thermo Fisher). Proteomics data were analyzed using Proteome Discoverer 2.4 against a Uniprot human database that included common contaminants using Sequest HT and Percolator for scoring. […] Proteins that were identified in at least one sample from both independent experiments with at least 2 PSMs in one sample were assigned to one of ten categories: 1, candidates; 2, cytoskeletal associated; 3, cytoskeletal; 4, ribosome/translation associated; 5, proteasome associated; 6, membrane or extracellular; ER, golgi, or vesicle associated; 8, lipid metabolism; 9, chaperones; 10, nuclear import or nuclear membrane associated. The proteins in category 1 were further investigated for interactions with DUX4.

[1] = LC-MS value per protein co-immunoprecipitated from MB135 myoblasts, + IFNG mix sample (no Dox), kind of count not given
[2] = LC-MS value per protein co-immunoprecipitated with DUX4-CTD construct mL1dL2 in MB135 myoblasts, + Dox + IFNG, kind of count not given
[3] = LC-MS counts of the listed protein co-immunoprecipitated with DUX4-CTD bait mL1dL2, experiment 4, Dox + IFNG
[4] = LC-MS counts of the listed protein in anti-FLAG co-IP, experiment 4, IFNG, no doxycycline, mix, MB135 myoblasts

Substance | 4. + IFNG mix [1] | 4. mL1dL2 + Dox + IFNG [2] | 4. longCTD + Dox + IFNG (experiment 4, Dox + IFNG) | 4. mL1dL2 + Dox + IFNG [3] | 3. + Dox longCTD | 3. + IFNg + Dox longCTD | SUM of PSMS | 4. + IFNG mix [4] | 3. + IFNG longCTD
AHNAK | 1 | – | – | – | – | – | – | – | –
CLTC | – | 8 | – | – | – | – | – | – | –
COL1A2 | 2 | – | – | – | – | – | – | – | –
DES | 24 | 10 | – | – | – | – | – | – | –
EEF1G | – | 1 | – | – | – | – | – | – | –
ENO1 | 6 | 3 | – | – | – | – | – | – | –
FLNA | 3 | 4 | – | – | – | – | – | – | –
FLNC | 1 | 2 | – | – | – | – | – | – | –
FN1 | 3 | – | – | – | – | – | – | – | –
G3BP1 | 1 | 1 | – | – | – | – | – | – | –
HNRNPK | 3 | 12 | – | – | – | – | – | – | –
HNRNPU | – | 1 | – | – | – | – | – | – | –
MYH9 | 10 | 1 | – | – | – | – | – | – | –
NES | 6 | 1 | – | – | – | – | – | – | –
NPM1 | 2 | 4 | – | – | – | – | – | – | –
O60684 | – | – | 1 | 6 | 4 | 4 | 15 | – | –
P4HB | 9 | 20 | – | – | – | – | – | – | –
P02751 | – | – | – | – | 17 | 48 | 68 | – | –
P06748 | – | – | – | – | 2 | 8 | 16 | – | –
P07237 | – | – | 14 | – | 3 | 5 | 51 | – | –
P07900 | – | – | 10 | 5 | – | 9 | 30 | 6 | –
P08123 | – | – | – | – | 1 | – | 4 | – | 1
P08238 | – | – | 10 | 6 | 2 | 14 | 32 | – | –

Substance | 4. + IFNG mix [1] | 4. mL1dL2 + Dox + IFNG [2] | 4. longCTD + Dox + IFNG (experiment 4, Dox + IFNG) | 4. mL1dL2 + Dox + IFNG [3] | 3. + Dox longCTD | 3. + IFNg + Dox longCTD | SUM of PSMS | 4. + IFNG mix [4] | 3. + IFNG longCTD
P08670 | – | – | 55 | – | 42 | 45 | 290 | – | 39
P10644 | – | – | 3 | 4 | – | 4 | 11 | – | –
P11021 | – | – | 44 | 49 | 22 | 62 | 209 | 31 | 1
P11142 | – | – | 105 | 90 | 27 | 54 | 299 | 21 | 2
P11940 | – | – | 3 | – | – | 13 | 21 | – | –
P16989 | – | – | – | – | 1 | 3 | 11 | – | –
P17661 | – | – | 12 | – | 9 | 15 | 84 | – | 14
P21333 | – | – | 10 | – | 1 | 12 | 30 | – | –
P26641 | – | – | 1 | – | 3 | 6 | 11 | – | –
P30153 | – | – | 2 | – | 5 | 14 | 28 | – | 2
P35579 | – | – | 4 | – | 122 | 242 | 387 | – | 8
P38646 | – | – | 7 | 11 | 1 | 10 | 30 | 1 | –
P40763 | – | – | – | – | 1 | 3 | 5 | – | –
P47929 | – | – | 6 | – | 1 | 1 | 8 | – | –
P48681 | – | – | 2 | – | 4 | 4 | 18 | – | 1
P49368 | – | – | 2 | 4 | – | 1 | 7 | – | –
P50990 | – | – | 3 | 1 | – | 2 | 6 | – | –
P50991 | – | – | 1 | 3 | – | 1 | 5 | – | –
P52294 | – | – | 2 | 1 | 4 | 8 | 15 | – | –
P61978 | – | – | 6 | – | 2 | 8 | 31 | – | –
P63010 | – | – | – | – | 8 | 26 | 35 | – | –
P68363 | – | – | – | – | 22 | – | 55 | – | –
P68371 | – | – | 100 | – | 42 | 70 | 283 | – | 11
